Patent publication US11298363B2, “Triazolobenzazepines as vasopressin V1a receptor antagonists” (RICHTER GEDEON NYRT., priority 2017, dated 2022)
Structures can show the parent of a compound that is named as a salt.

What was measured:
[1] = biological target: T1, human vasopressin V1a receptor (Homo sapiens, UniProt P37288); assay: Human vasopressin V1a receptor binding assay; conditions: for Ki: 1321N1 cell membranes, [3H]vasopressin, read-out: Ki (nM) on hV1a cell line
Procedure: Human Vasopressin V1a Receptor Binding Assay
Cells were suspended in preparative buffer (50 mM Tris, 1 mM EDTA, 0.1 mM PMSF) and homogenized with glass homogenizing potter. To separate the raw membrane fraction two consecutive centrifugation procedures (40,000 g for 20 minutes at 4° C.) were executed, then the membrane was taken into the preparatory buffer during a final washing step, it was divided into aliquots which were stored at −80° C. until the time of measurement.
To determine the final affinity value, the results of at least two independent experiments were taken into account.
Non-specific binding values were determined in the presence of unlabeled 1.2×10^−6 M (Arg^8)-vasopressin. Samples were incubated in a total volume of 0.33 ml for 60 minutes at 27° C. Membrane-bound and free ligands were separated by filtration through a 0.5% polyethyleneimine-impregnated UniFilter® GF/B™. After drying the filter plates, 40 μl Microscint-20 (Packard) scintillation cocktail was added to the samples. Finally, radioactivity was measured using MicroBeta^2 Microplate Counter (Perkin Elmer).
During fitting, the asymptotes are not fixed. The K values (inhibition constant) are given with Cheng-Prusoff equation Ki=IC50/[1+(L/KD)] wherein [L] is the radioligand concentration used in the experiment and [KD] is the affinity of the radioactively labelled ligand for the given receptor. The KD is determined beforehand using the Scatchard curve.

[2] = biological target: T1, human vasopressin V1a receptor; assay: Functional assay on human vasopressin V1a receptor expressing cell line (intracellular Ca2+ fluorescence); assay type: cell-based; conditions: 1321N1 cells, (Arg8)-vasopressin at EC80; read-out: IC50 (nM) on hV1a cell line
Procedure: Functional Assay to Test Compounds on Human Vasopressin V1a Receptor Expressing Cell Line
The ordinary secondary messenger pathway of the measured GPCR receptor was used, the endogenous Gq-associated system.
Using 30,000 cells/plate, compounds were measured on 96-well plates. The buffer composition of the measurements was the following (expressed in mM): 140 NaCl, 5 KCl, 2 CaCl2), 2 MgCl2, 10 glucose, 10 HEPES (4-(2-hydroxyethyl)-1-piperazine-ethanesulfonic acid), 2 probenecid, pH=7.4. FLIPR Calcium 5 kit (Molecular Devices) was used as fluorescent dye, the medium was not removed prior to filling with the dye and the cells were not washed out either before or after. The incubation was performed at room temperature, the final concentration of DMSO was 1%. The materials to be measured were administered in 15 to 20 minutes pretreatment, at least two parallels of each compound in each concentration was measured.
Fluorescence signal was used to determine the intracellular Ca^2+ level, the reader was FlexStation II96. […] The fluorescence signal was logged in every 1.4 seconds for 1 minute. The reference compounds used were the following: (Arg^8)-vasopressin as agonist at concentration of EC80, determined for each plate, and relcovaptan as antagonist at 1 μM. The % of inhibition at each concentration and the IC50 value of the compounds were determined where a concentration line was also measured.
The total AVP concentration-response curve was recorded on each plate. The effect of compounds measured was expressed by percentage of relative inhibition compared to control response. […] The average IC50 values were calculated from at least three independent measurements in all cases.

T1 sequence (P37288 whole entry): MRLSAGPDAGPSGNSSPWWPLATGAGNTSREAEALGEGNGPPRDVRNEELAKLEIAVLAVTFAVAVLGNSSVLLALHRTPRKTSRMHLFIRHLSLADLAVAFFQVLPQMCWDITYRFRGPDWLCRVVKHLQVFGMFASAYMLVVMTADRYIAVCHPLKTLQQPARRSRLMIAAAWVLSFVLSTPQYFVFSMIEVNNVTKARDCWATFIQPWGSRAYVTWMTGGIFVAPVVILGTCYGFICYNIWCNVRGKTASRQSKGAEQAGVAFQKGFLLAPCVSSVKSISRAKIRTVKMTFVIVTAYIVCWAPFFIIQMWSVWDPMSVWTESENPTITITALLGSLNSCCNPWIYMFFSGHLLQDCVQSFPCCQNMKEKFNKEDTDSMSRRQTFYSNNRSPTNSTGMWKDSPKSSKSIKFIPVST

## COC1(C)CCC(c2nnc3n2-c2ccc(Cl)cc2CC(NC(C)C)C3)CC1 (mixture of isomers) [Example 203, 8-chloro-1-(4-methoxy-4-methylcyclohexyl)-N-(propan-2-yl)-5,6-dihydro-4H-[1,2,4]triazolo[4,3-a][1]benzazepin-5-amine]
[1]
  Ki: 10.1 nM
[2]
  IC50: 210 nM

## CO[C@@H]1Cc2cc(Cl)ccc2-n2c(nnc2[C@H]2CC[C@H](C(F)(F)F)CC2)C1 (single isomer, unassigned) [Example 132]
[1]
  Ki: 0.3 nM
[2]
  IC50: 2.5 nM

## CO[C@H]1Cc2cc(Cl)ccc2-n2c(nnc2[C@H]2CC[C@H](C(F)(F)F)CC2)C1 (single isomer, unassigned) [Example 133]
[1]
  Ki: 0.4 nM
[2]
  IC50: 6.5 nM

## CO[C@@H]1Cc2cc(F)ccc2-n2c(nnc2[C@H]2CC[C@H](Oc3ccccn3)CC2)C1 (single isomer, unassigned) [Example 176]
[1]
  Ki: 0.4 nM
[2]
  IC50: 1.1 nM

## CO[C@H]1Cc2cc(F)ccc2-n2c(nnc2[C@H]2CC[C@H](Oc3ccccn3)CC2)C1 (single isomer, unassigned) [Example 177]
[1]
  Ki: 0.3 nM
[2]
  IC50: 0.9 nM

## NC1Cc2cc(Cl)ccc2-n2c(nnc2C2CCN(c3ccccn3)CC2)C1 (stereo not drawn) [Example 2, 8-chloro-1-[1-(pyridin-2-yl)piperidin-4-yl]-5,6-dihydro-4H-[1,2,4]triazolo[4,3-a][1]benzazepine-5-amine]
[1]
  Ki: 7 nM
[2]
  IC50: 170 nM

## CC(=O)NC1Cc2cc(Cl)ccc2-n2c(nnc2C2CCN(c3ccccn3)CC2)C1 (stereo not drawn) [Example 3, N-[8-chloro-[1-(pyridin-2-yl)piperidin-4-yl]-5,6-dihydro-4H-[1,2,4]triazolo[4,3-a][1]benzazepin-5-yl]acetamide]
[1]
  Ki: 2.1 nM
[2]
  IC50: 16 nM

## CC(C)C(=O)NC1Cc2cc(Cl)ccc2-n2c(nnc2C2CCN(c3ccccn3)CC2)C1 (stereo not drawn) [Example 4]
[1]
  Ki: 70 nM
[2]
  IC50: 825 nM

## CC(C)(C)OC(=O)NC1Cc2cc(Cl)ccc2-n2c(nnc2[C@H]2CC[C@H](Oc3ccccn3)CC2)C1 (stereo partly drawn) [Example 5, Tert-butyl {8-chloro-1-[trans-4-(pyridin-2-yloxy)cyclohexyl]-5,6-dihydro-4H-[1,2,4]triazolo[4,3-a][1]benzazepine-5-yl}carbamate]
[1]
  Ki: 3.8 nM
[2]
  IC50: 17 nM

## N[C@H]1Cc2cc(Cl)ccc2-n2c(nnc2[C@H]2CC[C@H](Oc3ccccn3)CC2)C1 [Example 7, (5S)-8-chloro-1[trans-4-(pyridin-2-yloxy)cyclohexyl]-5,6-dihydro-4H-[1,2,4]triazolo[4,3-a][1]benzazepine-5-amine]
[1]
  Ki: 2.1 nM
[2]
  IC50: 20 nM

## NCC(=O)NC1Cc2cc(Cl)ccc2-n2c(nnc2[C@H]2CC[C@H](Oc3ccccn3)CC2)C1 (stereo partly drawn) [Example 10, N-{8-chloro-1-[trans-4-(pyridin-2-yloxy)cyclohexyl]-5,6-dihydro-4H-[1,2,4]triazolo[4,3-a][1]benzazepin-5-yl}glycinamide]
[1]
  Ki: 1.8 nM
[2]
  IC50: 12 nM

## NCC(=O)N[C@H]1Cc2cc(Cl)ccc2-n2c(nnc2[C@H]2CC[C@H](Oc3ccccn3)CC2)C1 [Example 11, N-{(5S)-8-chloro-1-[trans-4-(pyridin-2-yloxy)cyclohexyl]-5,6-dihydro-4H-[1,2,4]triazolo[4,3-a][1]benzazepin-5-yl}glycinamide]
[1]
  Ki: 32 nM
[2]
  IC50: 480 nM

## N[C@H](C(=O)N[C@@H]1Cc2cc(Cl)ccc2-n2c(nnc2[C@H]2CC[C@H](Oc3ccccn3)CC2)C1)c1ccccc1 [Example 13, (2S)-2-amino-N-{(5R)-8-chloro-1-[trans-4-(pyridin-2-yloxy)cyclohexyl]-5,6-dihydro-4H-[1,2,4]triazolo[4,3-a][1]benzazepin-5-yl}-2-phenylacetamide]
[1]
  Ki: 5 nM
[2]
  IC50: 45 nM

## N[C@@H](C(=O)N[C@@H]1Cc2cc(Cl)ccc2-n2c(nnc2[C@H]2CC[C@H](Oc3ccccn3)CC2)C1)c1ccccc1 [Example 14, (2R)-2-amino-N-{(5R)-8-chloro-1-[trans-4-(pyridin-2-yloxy)cyclohexyl]-5,6-dihydro-4H-[1,2,4]triazolo[4,3-a][1]benzazepin-5-yl}-2-phenylacetamide]
[1]
  Ki: 1.1 nM
[2]
  IC50: 10 nM

## O=C(CO)NC1Cc2cc(Cl)ccc2-n2c(nnc2[C@H]2CC[C@H](Oc3ccccn3)CC2)C1 (stereo partly drawn) [Example 15, N-{8-chloro-1-[trans-4-(pyridin-2-yloxy)cyclohexyl]-5,6-dihydro-4H-[1,2,4]triazolo[4,3-a][1]benzazepin-5-yl}-2-hydroxyacetamide]
[1]
  Ki: 0.4 nM
[2]
  IC50: 3.7 nM

## CN(C)C(=O)NC1Cc2cc(Cl)ccc2-n2c(nnc2[C@H]2CC[C@H](Oc3ccccn3)CC2)C1 (stereo partly drawn) [Example 16, 3-{8-chloro-1-[trans-4-(pyridin-2-yloxy)cyclohexyl]-5,6-dihydro-4H-[1,2,4]triazolo[4,3-a][1]benzazepin-5-yl}-1,1-dimethylurea]
[1]
  Ki: 3 nM
[2]
  IC50: 10 nM

## CN(C)CC(=O)NC1Cc2cc(Cl)ccc2-n2c(nnc2[C@H]2CC[C@H](Oc3ccccn3)CC2)C1 (stereo partly drawn) [Example 17, N-{8-chloro-1-[trans-4-(pyridin-2-yloxy)cyclohexyl]-5,6-dihydro-4H-[1,2,4]triazolo[4,3-a][1]benzazepin-5-yl}-N^2,N^2-dimethylglycinamide]
[1]
  Ki: 2.1 nM
[2]
  IC50: 35 nM

## CN(C)C1Cc2cc(Cl)ccc2-n2c(nnc2[C@H]2CC[C@H](Oc3ccccn3)CC2)C1 (stereo partly drawn) [Example 22, 8-chloro-N,N-dimethyl-1-[trans-4-(pyridin-2-yloxy)cyclohexyl]-5,6-dihydro-4H-[1,2,4]triazolo[4,3-a][1]benzazepine-5-amine]
[1]
  Ki: 0.5 nM
[2]
  IC50: 2.8 nM

## Clc1ccc2c(c1)CC(NC1CCC1)Cc1nnc([C@H]3CC[C@H](Oc4ccccn4)CC3)n1-2 (stereo partly drawn) [Example 27, 8-chloro-N-cyclobutyl-1-[trans-4-(pyridin-2-yloxy)cyclohexyl]-5,6-dihydro-4H-[1,2,4]triazolo[4,3-a][1]benzazepine-5-amine]
[1]
  Ki: 1.1 nM
[2]
  IC50: 7 nM

## Clc1ccc2c(c1)CC(NC1COC1)Cc1nnc([C@H]3CC[C@H](Oc4ccccn4)CC3)n1-2 (stereo partly drawn) [Example 28, 8-chloro-N-(oxetan-3-yl)-1[trans-4-(pyridin-2-yloxy)cyclohexyl]-5,6-dihydro-4H-[1,2,4]triazolo[4,3-a][1]benzazepine-5-amine]
[1]
  Ki: 0.7 nM
[2]
  IC50: 5.4 nM

## FC1(F)CCC(NC2Cc3cc(Cl)ccc3-n3c(nnc3[C@H]3CC[C@H](Oc4ccccn4)CC3)C2)CC1 (stereo partly drawn) [Example 30, 8-chloro-N-(4,4-difluorocyclohexyl)-1-[trans-4-(pyridin-2-yloxy)cyclohexyl]-5,6-dihydro-4H-[1,2,4]triazolo[4,3-a][1]benzazepine-5-amine]
[1]
  Ki: 1.4 nM
[2]
  IC50: 15 nM

## COc1ccc2c(c1)CC(N)Cc1nnc([C@H]3CC[C@H](Oc4ccccn4)CC3)n1-2 (stereo partly drawn) [Example 31, 8-methoxy-1-[trans-4-(pyridin-2-yloxy)cyclohexyl]-5,6-dihydro-4H-[1,2,4]triazolo[4,3-a][1]benzazepine-5-amine hydrochloride]
[1]
  Ki: 17 nM
[2]
  IC50: 260 nM

## COc1ccc2c(c1)CC(NC(C)C)Cc1nnc([C@H]3CC[C@H](Oc4ccccn4)CC3)n1-2 (stereo partly drawn) [Example 32, 8-methoxy-N-(propan-2-yl)-1-[trans-4-(pyridin-2-yloxy)cyclohexyl]-5,6-dihydro-4H-[1,2,4]triazolo[4,3-a][1]benzazepine-5-amine]
[1]
  Ki: 6 nM
[2]
  IC50: 85 nM

## CC(C)NC1Cc2cc(Cl)ccc2-n2c(nnc2C2CC(F)(F)C2)C1 (stereo not drawn) [Example 41, 8-chloro-1-(3,3-difluorocyclobutyl)-N-(propan-2-yl)-5,6-dihydro-4H-[1,2,4]triazolo[4,3-a][1]benzazepine-5-amine]
[1]
  Ki: 600 nM

## CC(C)NC1Cc2cc(Cl)ccc2-n2c(nnc2C2CCC(F)(F)CC2)C1 (stereo not drawn) [Example 42, 8-chloro-1-(4,4-difluorocyclohexyl)-N-(propan-2-yl)-5,6-dihydro-4H-[1,2,4]triazolo[4,3-a][1]benzazepine-5-amine]
[1]; at 1 μM
  % at 1 μM, printed in the column Ki (nM) on hV1a cell line: 42% at 1 μM
